Measured values reported in patent US12351564B2, “NLRP3 modulators” (Zomagen Biosciences Ltd, priority 2019, dated 2025).

system: IL-1b; assay: Mouse BMDM IL-1b Assay; assay type: cell-based; settings: Macrophage; C57BL6 bone marrow derived macrophages; 200 ng/mL Ultrapure LPS-B5 3 hours, compound 30 minutes, 5 mM ATP 45 minutes; mouse IL-1b ELISA of supernatant
Method: Example 8: Mouse BMDM IL-1b Assay
Mouse bone marrow cells from C57BL6 tibia and femur were culture in complete Isocov's Media supplemented with 20 ng/mL MCSF (BMDM media) at a density of 50 million cells/15 cm Petri dish. Fresh media was changed every 3 days, and bone marrow derived macrophages were collected, washed, and counted on day 7. Cells were seeded into 96 well plates at a density of 5×10^4 cells per well in 100 uL of BMDM media and cultured overnight. The cells were stimulated at 37° C. with 200 ng/mL Ultrapure LPS-B5 for 3 hours before pre-diluted compounds were added. 30 minutes after compound addition, 5 mM ATP was added for the secondary stimulation for 45 minutes. After stimulation, the plates were briefly spun down, and 50 uL of supernatant was harvested from each well. ELISA for mouse IL-1b was performed with 1:10 and 1:100 diluted supernatant using pre-coated kits. IL-1b concentrations were calculated based on pre-titrated standards, and compound inhibition IC50 is generated using the Levenberg Marquardt damped lease-square method.

| Compound | IC50 [nM] |
| --- | --- |
| O=C(Nc1c2c(cc3c1CCC3)CCC2)NS(=O)(=O)c1cc2c(o1)[C@H]1CC[C@H](C1)C2O (stereo partly drawn) [Compound 49, (5R,8S)-N-((1,2,3,5,6,7-hexahydro-s-indacen-4-yl)carbamoyl)-4-hydroxy-5,6,7,8-tetrahydro-4H-5,8-methanocyclohepta[b]furan-2-sulfonamide] | 100 to 1000 |
| CC(C)c1ccc(F)c(C(C)C)c1NC(=O)NS(=O)(=O)c1cc2c(o1)C1CCC(C1)C2O (stereo not drawn) [Compound 37, N-((3-fluoro-2,6-diisopropylphenyl)carbamoyl)-4-hydroxy-5,6,7,8-tetrahydro-4H-5,8-methanocyclohepta[b]furan-2-sulfonamide] | 100 to 1000 |
| CC(C)c1ccc(Cl)c(C(C)C)c1NC(=O)NS(=O)(=O)c1cc2c(o1)C1CCC(C1)C2(C)O (stereo not drawn) [Compound 26, N-((3-chloro-2,6-diisopropylphenyl)carbamoyl)-4-hydroxy-4-methyl-5,6,7,8-tetrahydro-4H-5,8-methanocyclohepta[b]furan-2-sulfonamide] | 100 to 1000 |
| CC(C)c1cc(F)cc(C(C)C)c1NC(=O)NS(=O)(=O)c1cc2c(o1)C1CCC(C1)C2(C)O (stereo not drawn) [Compound 28, N-((4-fluoro-2,6-diisopropylphenyl)carbamoyl)-4-hydroxy-4-methyl-5,6,7,8-tetrahydro-4H-5,8-methanocyclohepta[b]furan-2-sulfonamide] | 100 to 1000 |
| CC(C)c1cccc(C(C)C)c1CC(=O)NS(=O)(=O)c1cc2c(o1)C1CCC(C1)C2(C)O (stereo not drawn) [Compound 16, 2-(2,6-diisopropylphenyl)-N-((4-hydroxy-4-methyl-5,6,7,8-tetrahydro-4H-5,8-methanocyclohepta[b]furan-2-yl)sulfonyl)acetamide] | 100 to 1000 |
| CC1(O)c2cc(S(=O)(=O)NC(=O)Nc3c4c(cc5c3CCC5)CCC4)ccc2C2CCC1CC2 (stereo not drawn) [Compound 34, N-((1,2,3,5,6,7-hexahydro-s-indacen-4-yl)carbamoyl)-9-hydroxy-9-methyl-6,7,8,9-tetrahydro-5H-5,8-ethanobenzo[7]annulene-2-sulfonamide] | 100 to 1000 |
| CC1(O)c2cc(S(=O)(=O)NC(=O)Nc3c4c(c(F)c5c3CCC5)CCC4)oc2C2CCC1C2 (stereo not drawn) [Compound 30, N-((8-fluoro-1,2,3,5,6,7-hexahydro-s-indacen-4-yl)carbamoyl)-4-hydroxy-4-methyl-5,6,7,8-tetrahydro-4H-5,8-methanocyclohepta[b]furan-2-sulfonamide] | < 100 |
| O=C(Nc1c2c(cc3c1CCC3)CCC2)NS(=O)(=O)c1cc2c(o1)C1CCC(CC1)C2CO (stereo not drawn) [Compound 46, N-((1,2,3,5,6,7-hexahydro-s-indacen-4-yl)carbamoyl)-4-(hydroxymethyl)-5,6,7,8-tetrahydro-4H-5,8-ethanocyclohepta[b]furan-2-sulfonamide] | < 100 |
| O=C(Nc1c2c(cc3c1CCC3)CCC2)NS(=O)(=O)c1cc2c(o1)C1CCC(C1)C2O (stereo not drawn) [Compound 9, N-((1,2,3,5,6,7-hexahydro-s-indacen-4-yl)carbamoyl)-4-hydroxy-5,6,7,8-tetrahydro-4H-5,8-methanocyclohepta[b]furan-2-sulfonamide] | < 100 |
| CC1(O)c2cc(S(=O)(=O)NC(=O)Nc3c4c(cc5c3CCC5)CCC4)oc2C2CCC1CC2 (stereo not drawn) [Compound 21, N-((1,2,3,5,6,7-hexahydro-s-indacen-4-yl)carbamoyl)-4-hydroxy-4-methyl-5,6,7,8-tetrahydro-4H-5,8-ethanocyclohepta[b]furan-2-sulfonamide] | < 100 |
| O=C(Nc1c2c(c(Br)c3c1CCC3)CCC2)NS(=O)(=O)c1cc2c(o1)C1CCC(C1)C2O (stereo not drawn) [Compound 17, N-((8-bromo-1,2,3,5,6,7-hexahydro-s-indacen-4-yl)carbamoyl)-4-hydroxy-5,6,7,8-tetrahydro-4H-5,8-methanocyclohepta[b]furan-2-sulfonamide] | 100 to 1000 |

Now from value to molecule:

| IC50 [nM] | Compound |
| --- | --- |
| < 100 | C[C@@]1(O)c2cc(S(=O)(=O)NC(=O)Nc3c4c(cc5c3CCC5)CCC4)oc2C2CCC1CC2 [Compound 43, (S)-N-((1,2,3,5,6,7-hexahydro-s-indacen-4-yl)carbamoyl)-4-hydroxy-4-methyl-5,6,7,8-tetrahydro-4H-5,8-ethanocyclohepta[b]furan-2-sulfonamide] |
| < 100 | O=C(Nc1c2c(cc3c1CCC3)CCC2)NS(=O)(=O)c1cc2c(o1)[C@@H]1CC[C@@H](C1)C2O (stereo partly drawn) [Compound 50, (5S,8R)-N-((1,2,3,5,6,7-hexahydro-s-indacen-4-yl)carbamoyl)-4-hydroxy-5,6,7,8-tetrahydro-4H-5,8-methanocyclohepta[b]furan-2-sulfonamide] |
| < 100 | C[C@]1(O)c2cc(S(=O)(=O)NC(=O)Nc3c4c(cc5c3CCC5)CCC4)oc2C2CCC1CC2 [Compound 44, (R)-N-((1,2,3,5,6,7-hexahydro-s-indacen-4-yl)carbamoyl)-4-hydroxy-4-methyl-5,6,7,8-tetrahydro-4H-5,8-ethanocyclohepta[b]furan-2-sulfonamide] |
| < 100 | CC1(O)c2cc(S(=O)(=O)NC(=O)Nc3c4c(cc5c3CCC5)CCC4)oc2C2CCC1C2 (stereo not drawn) [Compound 6, N-((1,2,3,5,6,7-hexahydro-s-indacen-4-yl)carbamoyl)-4-hydroxy-4-methyl-5,6,7,8-tetrahydro-4H-5,8-methanocyclohepta[b]furan-2-sulfonamide] |
| < 100 | CC1(O)c2cc(S(=O)(=O)NC(=O)Nc3c4c(c(Cl)c5c3CCC5)CCC4)oc2C2CCC1C2 (stereo not drawn) [Compound 20, N-((8-chloro-1,2,3,5,6,7-hexahydro-s-indacen-4-yl)carbamoyl)-4-hydroxy-4-methyl-5,6,7,8-tetrahydro-4H-5,8-methanocyclohepta[b]furan-2-sulfonamide] |
| < 100 | O=C(Nc1c2c(cc3c1CCC3)CCC2)NS(=O)(=O)c1cc2c(o1)C1CCC(CC1)C2=O [Compound 23, N-((1,2,3,5,6,7-hexahydro-s-indacen-4-yl)carbamoyl)-4-oxo-5,6,7,8-tetrahydro-4H-5,8-ethanocyclohepta[b]furan-2-sulfonamide] |
| < 100 | O=C(Nc1c2c(c(Cl)c3c1CCC3)CCC2)NS(=O)(=O)c1cc2c(o1)C1CCC(C1)C2O (stereo not drawn) [Compound 19, N-((8-chloro-1,2,3,5,6,7-hexahydro-s-indacen-4-yl)carbamoyl)-4-hydroxy-5,6,7,8-tetrahydro-4H-5,8-methanocyclohepta[b]furan-2-sulfonamide] |
| < 100 | C[C@@]1(O)c2cc(S(=O)(=O)NC(=O)Nc3c4c(cc5c3CCC5)CCC4)oc2[C@@H]2CC[C@H]1C2 [Compound 41, (4S,5S,8R)-N-((1,2,3,5,6,7-hexahydro-s-indacen-4-yl)carbamoyl)-4-hydroxy-4-methyl-5,6,7,8-tetrahydro-4H-5,8-methanocyclohepta[b]furan-2-sulfonamide] |
| < 100 | O=C(Nc1c2c(c(F)c3c1CCC3)CCC2)NS(=O)(=O)c1cc2c(o1)C1CCC(C1)C2O (stereo not drawn) [Compound 31, N-((8-fluoro-1,2,3,5,6,7-hexahydro-s-indacen-4-yl)carbamoyl)-4-hydroxy-5,6,7,8-tetrahydro-4H-5,8-methanocyclohepta[b]furan-2-sulfonamide] |
| < 100 | O=C(Nc1c2c(cc3c1CCC3)CCC2)NS(=O)(=O)c1cc2c(o1)C1CCC(C1)C2=O (stereo not drawn) [Compound 7, N-((1,2,3,5,6,7-hexahydro-s-indacen-4-yl)carbamoyl)-4-oxo-5,6,7,8-tetrahydro-4H-5,8-methanocyclohepta[b]furan-2-sulfonamide] |
| < 100 | CC(C)c1cccc(C(C)C)c1NC(=O)NS(=O)(=O)c1cc2c(o1)C1CCC(C1)C2(C)O (stereo not drawn) [Compound 27, N((2,6-diisopropylphenyl)carbamoyl)-4-hydroxy-4-methyl-5,6,7,8-tetrahydro-4H-5,8-methanocyclohepta[b]furan-2-sulfonamide] |
| < 100 | O=C(Nc1c2c(cc3c1CCC3)CCC2)NS(=O)(=O)c1cc2c(s1)C1CCC(C1)C2O (stereo not drawn) [Compound 48, N-((1,2,3,5,6,7-hexahydro-s-indacen-4-yl)carbamoyl)-4-hydroxy-5,6,7,8-tetrahydro-4H-5,8-methanocyclohepta[b]thiophene-2-sulfonamide] |
| < 100 | CC1(O)c2cc(S(=O)(=O)NC(=O)Nc3c4c(cc5c3CCC5)CCC4)sc2C2CCC1C2 (stereo not drawn) [Compound 47, N-((1,2,3,5,6,7-hexahydro-s-indacen-4-yl)carbamoyl)-4-hydroxy-4-methyl-5,6,7,8-tetrahydro-4H-5,8-methanocyclohepta[b]thiophene-2-sulfonamide] |
| < 100 | C[C@]1(O)c2cc(S(=O)(=O)NC(=O)Nc3c4c(cc5c3CCC5)CCC4)oc2[C@H]2CC[C@@H]1C2 [Compound 40, (4R,5R,8S)-N-((1,2,3,5,6,7-hexahydro-s-indacen-4-yl)carbamoyl)-4-hydroxy-4-methyl-5,6,7,8-tetrahydro-4H-5,8-methanocyclohepta[b]furan-2-sulfonamide] |
| < 100 | O=C(Nc1c2c(cc3c1CCC3)CCC2)NS(=O)(=O)c1cc2c(o1)C1CCC(C1)C2=NO (stereo not drawn) [Compound 11, N-((1,2,3,5,6,7-hexahydro-s-indacen-4-yl)carbamoyl)-4-(hydroxyimino)-5,6,7,8-tetrahydro-4H-5,8-methanocyclohepta[b]furan-2-sulfonamide] |
| < 100 | CC1(O)c2cc(S(=O)(=O)NC(=O)Nc3c4c(c(Br)c5c3CCC5)CCC4)oc2C2CCC1C2 (stereo not drawn) [Compound 18, N-((8-bromo-1,2,3,5,6,7-hexahydro-s-indacen-4-yl)carbamoyl)-4-hydroxy-4-methyl-5,6,7,8-tetrahydro-4H-5,8-methanocyclohepta[b]furan-2-sulfonamide] |
